The source of these data is PubChem BioAssay AID318 (DTP/NCI, 2004).

The test system of the assay is BDF1 mice, P815 leukemia ip, survival T/C. Kind of assay: NCI In Vivo Anticancer Drug Screen. Data for tumor model P815 Mast Cell Leukemia (Ascitic) (intraperitoneal) in B6D2F1 (BDF1) mice. The note with it: higher = longer survival. How it is done:
The antitumor activity of compounds was measured in mice bearing transplantable tumors. Survival or tumor size were measured and the results are expressed as the measurement made in the treated group (T) divided by the measurement made in the vehicle treated control group (C). The tumor model used in this assay is P815 Mast Cell Leukemia (Ascitic) (intraperitoneal) in B6D2F1 (BDF1) mice

Setting [1] is: endpoint: survival time, mean or median, dose: 0.25 mg/kg/injection, schedule: Q01DX010 (ip), vehicle: saline.
The mark [2] stands for this setting: endpoint: survival time, mean or median, dose: 1.0 mg/kg/injection, schedule: Q01DX010 (ip), vehicle: saline.
Where [3] appears, read: endpoint: survival time, mean or median, dose: 2.0 mg/kg/injection, schedule: Q01DX010 (ip), vehicle: saline.
The mark [4] stands for this setting: endpoint: survival time, mean or median, dose: 250.0 mg/kg/injection, schedule: Q01DX010 (ip), vehicle: saline.
[5] abbreviates: endpoint: survival time, mean or median, dose: 15.0 mg/kg/injection, schedule: Q01DX010 (ip), vehicle: saline.
The mark [6] stands for this setting: endpoint: survival time, mean or median, dose: 30.0 mg/kg/injection, schedule: Q01DX010 (ip), vehicle: saline.
[7] abbreviates: endpoint: survival time, mean or median, dose: 60.0 mg/kg/injection, schedule: Q01DX010 (ip), vehicle: saline.
The mark [8] stands for this setting: endpoint: survival time, mean or median, dose: 3.13 mg/kg/injection, schedule: Q01DX010 (ip), vehicle: saline.
Setting [9] is: endpoint: survival time, mean or median, dose: 6.25 mg/kg/injection, schedule: Q01DX010 (ip), vehicle: saline.
[10] abbreviates: endpoint: survival time, mean or median, dose: 12.5 mg/kg/injection, schedule: Q01DX010 (ip), vehicle: saline.
Where [11] appears, read: endpoint: survival time, mean or median, dose: 25.0 mg/kg/injection, schedule: Q01DX010 (ip), vehicle: saline.
Where [12] appears, read: endpoint: survival time, mean or median, dose: 2.5 mg/kg/injection, schedule: Q01DX010 (ip), vehicle: saline.
Where [13] appears, read: endpoint: survival time, mean or median, dose: 5.0 mg/kg/injection, schedule: Q01DX010 (ip), vehicle: saline.
Setting [14] is: endpoint: survival time, mean or median, dose: 10.0 mg/kg/injection, schedule: Q01DX010 (ip), vehicle: saline.
[15] abbreviates: endpoint: survival time, mean or median, dose: 40.0 mg/kg/injection, schedule: Q01DX010 (ip), vehicle: saline.
[16] abbreviates: endpoint: survival time, mean or median, dose: 4.0 mg/kg/injection, schedule: Q01DX010 (ip), vehicle: saline.

“And” between values parts separate entries of the source, which are not always exact repeats. Equal values may be shown once. Inconclusive results and toxic doses are left out.

Consider `N#C[C@@H]1C2C=CC(CC2)[C@H]1C#N`, for which the T/C was 100 % of control under setting [1]; 100 % of control and 105 % of control (endpoint: survival time, mean or median, dose: 0.5 mg/kg/injection, schedule: Q01DX010 (ip), vehicle: saline); 100 % of control under setting [2]; 88 % of control and 100 % of control under setting [3].
For the molecule `O=C(Nc1ccc(NC(=O)Nc2ccc(C3=NCCN3)cc2)cc1)Nc1ccc(C2=NCCN2)cc1`, the T/C runs as follows: (endpoint: survival time, mean or median, dose: 110.0 mg/kg/injection, schedule: Q01DX010 (ip), vehicle: saline) 113 % of control; (endpoint: survival time, mean or median, dose: 165.0 mg/kg/injection, schedule: Q01DX010 (ip), vehicle: saline) 113 % of control; under setting [4], 100 % of control; (endpoint: survival time, mean or median, dose: 375.0 mg/kg/injection, schedule: Q01DX010 (ip), vehicle: saline) 104 % of control.
For `Nc1cc(C(=O)Nc2ccc(C3=NCCN3)cc2)cc(C(=O)Nc2ccc(C3=NCCN3)cc2)c1`, the T/C runs as follows: (endpoint: survival time, mean or median, dose: 16.0 mg/kg/injection, schedule: Q01DX010 (ip), vehicle: saline) 116 % of control; (endpoint: survival time, mean or median, dose: 32.0 mg/kg/injection, schedule: Q01DX010 (ip), vehicle: saline) 120 % of control; (endpoint: survival time, mean or median, dose: 64.0 mg/kg/injection, schedule: Q01DX010 (ip), vehicle: saline) 150 % of control.
In the case of `C[N+](C)(C)c1ncnc2nc[nH]c12`, the T/C under setting [5] was 100 % of control, the T/C under setting [6] was 94 % of control and the T/C under setting [7] is 88 % of control.
Turning to `[I][Hg][CH2]C1COC([CH2][Hg][I])CO1` (stereo not drawn), the T/C is, setting by setting: under setting [8], 90 % of control; under setting [9], 90 % of control; under setting [10], 95 % of control; under setting [11], 90 % of control.
As to `Cc1cc2nc3c(=O)[nH]c(=O)nc-3n(CC(O)C(O)C(O)C(O)CO)c2cc1C` (stereo not drawn), the T/C (endpoint: survival time, mean or median, dose: 50.0 mg/kg/injection, schedule: Q01DX010 (ip), vehicle: saline) was 100 % of control; the T/C (endpoint: survival time, mean or median, dose: 100.0 mg/kg/injection, schedule: Q01DX010 (ip), vehicle: saline) is 100 % of control; the T/C (endpoint: survival time, mean or median, dose: 200.0 mg/kg/injection, schedule: Q01DX010 (ip), vehicle: saline) is 88 % of control and 100 % of control; the T/C (endpoint: survival time, mean or median, dose: 400.0 mg/kg/injection, schedule: Q01DX010 (ip), vehicle: saline) is 88 % of control.
As for `C1CN1c1nc(N2CC2)nc(N2CC2)n1`, the T/C was 111 % of control (endpoint: survival time, mean or median, dose: 0.13 mg/kg/injection, schedule: Q01DX010 (ip), vehicle: saline); 111 % of control under setting [1]; 100 % of control (endpoint: survival time, mean or median, dose: 125.0 micrograms/kg/injection, schedule: Q01DX010 (ip), vehicle: saline); 105 % of control (endpoint: survival time, mean or median, dose: 250.0 micrograms/kg/injection, schedule: Q01DX010 (ip), vehicle: saline); 94 % of control (endpoint: survival time, mean or median, dose: 1000.0 micrograms/kg/injection, schedule: Q01DX010 (ip), vehicle: saline).
Turning to `C[C@H]1C(=O)O[C@@H]2CCN3CC=C(COC(=O)[C@](C)(O)[C@@]1(C)O)[C@H]23`, the T/C under setting [8] was 94 % of control and 100 % of control; the T/C under setting [9] is 100 % of control and 105 % of control; the T/C under setting [10] is 88 % of control and 94 % of control; the T/C under setting [11] was 100 % of control.
Regarding `N#CCSc1ncnc2nc[nH]c12`, the T/C runs as follows: (endpoint: survival time, mean or median, dose: 7.5 mg/kg/injection, schedule: Q01DX010 (ip), vehicle: saline) 100 % of control; under setting [5], 100 % of control and 111 % of control; under setting [6], 100 % of control and 111 % of control; under setting [7], 94 % of control and 122 % of control.
For `Oc1cc(CN(CCCl)CCCl)c(O)cc1CN(CCCl)CCCl`, the T/C by setting is: (endpoint: survival time, mean or median, dose: 0.63 mg/kg/injection, schedule: Q01DX010 (ip), vehicle: saline) 111 % of control; (endpoint: survival time, mean or median, dose: 1.25 mg/kg/injection, schedule: Q01DX010 (ip), vehicle: saline) 116 % of control and 122 % of control; under setting [12], 172 % of control; under setting [13], 122 % of control; under setting [14], 122 % of control.
As to `CN(C)[C@@H]1C(=O)C(C(N)=O)=C(O)[C@@]2(O)C(=O)C3=C(O)c4c(O)cccc4C[C@H]3C[C@@H]12`, the T/C (endpoint: survival time, mean or median, dose: 30.0 mg/kg/injection, schedule: Q01DX015 (ip), vehicle: alkali diluted with saline) is 117 % of control.
As for `O=c1[nH]cc(F)c(=O)[nH]1`, the T/C (endpoint: median survival time, dose: 80.0 mg/kg/injection, schedule: Q04DX003 (ip), vehicle: saline) is 118 % of control; the T/C under setting [13] was 150 % of control; the T/C (endpoint: survival time, mean or median, dose: 5.0 mg/kg/injection, schedule: Q01DX015 (ip), vehicle: carboxymethylcellulose (CMC)) is 162 % of control; the T/C under setting [14] was 194 % of control and 150 % of control; the T/C (endpoint: survival time, mean or median, dose: 10.0 mg/kg/injection, schedule: Q01DX015 (ip), vehicle: carboxymethylcellulose (CMC)) is 174 % of control; the T/C (endpoint: survival time, mean or median, dose: 15.0 mg/kg/injection, schedule: Q01DX015 (ip), vehicle: carboxymethylcellulose (CMC)) was 199 % of control and 174 % of control. Besides, the T/C reads like this: (endpoint: survival time, mean or median, dose: 20.0 mg/kg/injection, schedule: Q01DX010 (ip), vehicle: saline) 195 % of control and 216 % of control; (endpoint: survival time, mean or median, dose: 20.0 mg/kg/injection, schedule: Q01DX015 (ip), vehicle: carboxymethylcellulose (CMC)) 189 % of control; under setting [15], 95 % of control and 111 % of control.
Consider `O=C(Nc1ccc(C2=NCCN2)cc1)Nc1cccc(NC(=O)Nc2ccc(C3=NCCN3)cc2)c1`, for which the T/C is 258 % of control and 276 % of control (endpoint: survival time, mean or median, dose: 120.0 mg/kg/injection, schedule: Q01DX010 (ip), vehicle: saline); 88 % of control and 92 % of control (endpoint: survival time, mean or median, dose: 240.0 mg/kg/injection, schedule: Q01DX010 (ip), vehicle: saline).
For `S=P(N1CCOCC1)(N1CC1)N1CC1`, the T/C under setting [12] was 97 % of control and 100 % of control; the T/C under setting [15] was 100 % of control.
Regarding `COc1cc(-c2ccc(Nc3ccccc3C(=O)O)c(OC)c2)ccc1Nc1ccccc1C(=O)O`, the T/C was 108 % of control (endpoint: survival time, mean or median, dose: 45.0 mg/kg/injection, schedule: Q01DX010 (ip), vehicle: saline) and 120 % of control (endpoint: survival time, mean or median, dose: 67.0 mg/kg/injection, schedule: Q01DX010 (ip), vehicle: saline).
`O=C(Nc1ccc(C2=NCCN2)cc1)c1ccc(C(=O)Nc2ccc(C3=NCCN3)cc2)cc1`: the T/C runs as follows: (endpoint: survival time, mean or median, dose: 75.0 mg/kg/injection, schedule: Q01DX010 (ip), vehicle: saline) 158 % of control; (endpoint: survival time, mean or median, dose: 112.0 mg/kg/injection, schedule: Q01DX010 (ip), vehicle: saline) 175 % of control; (endpoint: survival time, mean or median, dose: 167.0 mg/kg/injection, schedule: Q01DX010 (ip), vehicle: saline) 175 % of control; under setting [4], 108 % of control.
Consider `O=CCC(O)C(O)C(O)CO` (stereo not drawn), for which the T/C is, setting by setting: (endpoint: survival time, mean or median, dose: 62.5 mg/kg/injection, schedule: Q01DX010 (ip), vehicle: saline) 94 % of control and 97 % of control; (endpoint: survival time, mean or median, dose: 125.0 mg/kg/injection, schedule: Q01DX010 (ip), vehicle: saline) 97 % of control and 105 % of control; under setting [4], 105 % of control and 107 % of control; (endpoint: survival time, mean or median, dose: 500.0 mg/kg/injection, schedule: Q01DX010 (ip), vehicle: saline) 102 % of control.
For the molecule `O=C(Nc1ccc(NC2=NCCN2)cc1)c1ccc(C(=O)Nc2ccc(NC3=NCCN3)cc2)cc1`, the T/C under setting [3] is 110 % of control and 111 % of control; the T/C under setting [16] is 105 % of control and 113 % of control.
As to `COc1ccc2c(c1OC)C(=O)O[C@@H]2[C@H]1c2c(cc3c(c2OC)OCO3)CCN1C`, the T/C reads like this: (endpoint: survival time, mean or median, dose: 62.5 mg/kg/injection, schedule: Q01DX015 (ip), vehicle: carboxymethylcellulose (CMC)) 101 % of control; (endpoint: survival time, mean or median, dose: 125.0 mg/kg/injection, schedule: Q01DX015 (ip), vehicle: carboxymethylcellulose (CMC)) 95 % of control; (endpoint: survival time, mean or median, dose: 250.0 mg/kg/injection, schedule: Q01DX015 (ip), vehicle: carboxymethylcellulose (CMC)) 96 % of control; (endpoint: survival time, mean or median, dose: 500.0 mg/kg/injection, schedule: Q01DX015 (ip), vehicle: carboxymethylcellulose (CMC)) 93 % of control.
Turning to `CS(=O)(=O)OCCN(CCOS(C)(=O)=O)c1ccc(N=O)cc1`, the T/C runs as follows: under setting [2], 161 % of control; under setting [3], 115 % of control; under setting [16], 100 % of control.
